Source: patent US4565810A, “Derivatives of biliary acids, process for the production thereof and pharmaceutical compositions containing the same” (Lehner A.G., priority 1983, dated 1986)
Where two headings read alike, the source gives them in different places.

Tests used:
physchem [1] = settings: c18 hplc, methanol/water; for K' (retention factor): pH 5.7
Description: (§1) The [α]D, pKa, the retention factor and the critical micellar concentrations (CMC), important because related to the capacity to form micelles in the bile and function of the hydrophilic/lipophilic balance, have been determined on the A, B, C, D isomers of 22,23-methanate-ursodeoxycholic acid. The CMCs have been measured by the method of the solubilization of insoluble dyes such as Azulene and Orange OT (Roda et al., J. Biol. Chem., in press).
**K' = Retention factor. It has been calculated from the retention times
on HPLC using as stationary phase a C18 column and as mobile phase a
mixture of methanol/H2 O 130/70; pH 5.7.

[2] = type: physicochemical
Description: as §1

physchem [3] = assay: physchem
Description: as §1
*Determined by potentiometric titration.

[4] = Hepatic uptake in isolated rat livers (method of Mortimore); type: in vitro ADME; settings: isolated perfused liver, mean ± SD of five determinations
bile lipid secretion = assay: Bile flow and bile lipid secretion in anaesthetized rats; type: in vivo, Sprague-Dawley rats; settings: 50 mg i.v., bile collected for 5 h; for Bile flow: controls 0.55 ± 0.12, *** p < 0.01 vs. controls; for Cholesterol secretion: controls 1.66 ± 0.12, *** p < 0.01 vs. controls; for Phospholipid secretion: controls 6.92 ± 0.44, *** p < 0.01 vs. controls (CUDCA); for BA (bile acids) secretion: controls 61 ± 8
Description: *The control values were obtained on five rats studied under similar
conditions to the BA treated rats. Each value represents the mean plus or
minus the SD of five determinations.

[5] = target: human serum albumina (HSP) (Homo sapiens, UniProt P02768); assay: Interaction with human serum albumin (albumin affinity constant)
Chain of human serum albumina (HSP) (P02768 25-609): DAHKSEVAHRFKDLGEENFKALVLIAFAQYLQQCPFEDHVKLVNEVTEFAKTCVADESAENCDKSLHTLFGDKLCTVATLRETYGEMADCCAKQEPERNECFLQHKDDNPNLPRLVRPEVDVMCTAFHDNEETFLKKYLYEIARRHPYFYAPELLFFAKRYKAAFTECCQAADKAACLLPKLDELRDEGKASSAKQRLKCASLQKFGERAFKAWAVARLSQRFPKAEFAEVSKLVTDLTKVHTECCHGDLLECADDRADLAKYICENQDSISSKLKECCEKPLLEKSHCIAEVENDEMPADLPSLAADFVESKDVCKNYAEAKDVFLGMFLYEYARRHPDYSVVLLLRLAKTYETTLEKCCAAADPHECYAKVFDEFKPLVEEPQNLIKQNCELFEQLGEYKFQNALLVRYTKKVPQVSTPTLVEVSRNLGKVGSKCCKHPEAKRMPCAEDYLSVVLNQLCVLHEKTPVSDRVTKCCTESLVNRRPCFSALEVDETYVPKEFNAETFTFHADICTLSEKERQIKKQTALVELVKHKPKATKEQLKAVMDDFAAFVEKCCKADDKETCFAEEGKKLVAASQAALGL

Row | SMILES | K' (retention factor) (physchem [1]) | CMC (H2O) [2] [mM] | CMC (Na^+ 0.15 M) [2] [mM] | pKa (physchem [3]; pKa) | pKa (physchem [3]) | hepatic extraction ratio [4] | Bile flow (bile lipid secretion) [mL/h] | Cholesterol secretion (bile lipid secretion) [µmol/kg/h] | Phospholipid secretion (bile lipid secretion) | BA (bile acids) secretion (bile lipid secretion) [µmol/kg/h] | Kd [5] [µM] | chromatographic logD (physchem [1]; pH 5.7, K' (retention factor))
1 | C[C@H](C1CC1C(=O)O)[C@H]1CC[C@H]2[C@@H]3[C@@H](O)C[C@@H]4C[C@H](O)CC[C@]4(C)[C@H]3CC[C@]12C (single isomer, unassigned) [Isom. A, 22,23-methanate-ursodeoxycholic acid] | 0.21 | 25 | 16 | 5.03 |  |  |  |  |  |  |  | 
2 | C[C@H](C1CC1C(=O)O)[C@H]1CC[C@H]2[C@@H]3[C@@H](O)C[C@@H]4C[C@H](O)CC[C@]4(C)[C@H]3CC[C@]12C (single isomer, unassigned) [Isom. B, 22,23-methanate-ursodeoxycholic acid] | 0.80 | 20 | 12 |  | 5.06 |  |  |  |  |  |  | 
3 | C[C@H](C1CC1C(=O)O)[C@H]1CC[C@H]2[C@@H]3[C@@H](O)C[C@@H]4C[C@H](O)CC[C@]4(C)[C@H]3CC[C@]12C (single isomer, unassigned) [Isom. C, 22,23-methanate-ursodeoxycholic acid] | 1.30 | 14 | 8 |  | 5.02 |  |  |  |  |  |  | 
4 | C[C@H](C1CC1C(=O)O)[C@H]1CC[C@H]2[C@@H]3[C@@H](O)C[C@@H]4C[C@H](O)CC[C@]4(C)[C@H]3CC[C@]12C (single isomer, unassigned) [Isom. D, 22,23-methanate-ursodeoxycholic acid] | 2.05 | 10 | 6 |  | 5.04 |  |  |  |  |  |  | 
5 | C[C@H](C1CC1C(=O)O)[C@H]1CC[C@H]2[C@@H]3[C@@H](O)C[C@@H]4C[C@H](O)CC[C@]4(C)[C@H]3CC[C@]12C (stereo partly drawn) [CUDCA, 3α, 7β-dihydroxy-22,23-methylene-5β-cholan-24-oic acid] |  |  |  |  |  | 0.46 ± 0.01 | 1.68 ± 0.20 | 2.70 ± 0.14 | 9.50 ± 0.44 ^.parallel.mol kg^-1 h^- | 97 ± 9 | 14.7 | 
6 | C[C@H](CCC(=O)O)[C@H]1CC[C@H]2[C@@H]3[C@@H](O)C[C@H]4C[C@H](O)CC[C@]4(C)[C@H]3CC[C@]12C [UDCA, 3α, 7β-dihydroxy-5α-cholan-24-oic acid, reference compound] |  | 19 | 11 | 5.06 |  |  | 1.08 ± 0.15 | 2.12 ± 0.09 | 6.47 ± 0.54 ^.parallel.mol kg^-1 h^- | 98 ± 7 |  | -0.0223
